From US20250144067A1, “PERSONALIZED STARVATION THERAPY FOR CANCER” (Faeth Therapeutics, Inc., priority 2021, published 2025)
Where a name gives a salt, the structure may show the parent alone. Read-outs that look alike come from different tables or passages of the source.

What was measured:
[1] = system: NCI-H292 lung cancer cells; experiment: FDA drug screening, complete media vs cholesterol-free media without statin (TABLE 1); type: cell-based, human
[2] = system: NCI-H292 lung cancer cells; experiment: FDA drug screening, complete media vs cholesterol-free media with simvastatin (TABLE 2); type: cell-based, human
[3] = Complete minus Cholesterol-free, greater than 0 enhanced anti-cancer activity, about 0 neutral, below 0 antagonist
[4] = NCI-H292 cells, FDA drug library screen, cholesterol-free media without statin
[5] = NCI-H292 cells, FDA drug library screen, complete media
[6] = NCI-H292 cells, cholesterol-free media with simvastatin 0.04 μM, FDA drug library screen (TABLE 2)
[7] = NCI-H292 cells, complete media, FDA drug library screen (TABLE 2)
[8] = complete media minus cholesterol-free media + simvastatin (0.04 μM), >0 enhanced anti-cancer activity, about 0 neutral, <0 antagonist
[9] = NCI-H292 cells, drug in cholesterol-free media with simvastatin 0.04 μM
[10] = NCI-H292 cells, drug in complete media
[11] = complete media vs cholesterol-free media + simvastatin (0.04 μM), >0 enhanced anti-cancer activity, about 0 neutral, <0 antagonist
[12] = NCI-H292 cells, cholesterol-free media without statin, FDA drug library screen
[13] = NCI-H292 cells, complete media, FDA drug library screen
[14] = NCI-H292 cells, FDA drug library screen, cholesterol-free media with simvastatin 0.04 μM
[15] = Complete minus Cholesterol-free, >0 enhanced anti-cancer activity, about 0 neutral, <0 antagonist
[16] = Complete minus Cholesterol-free, greater than 0 enhanced anti-cancer activity, about 0 neutral, below 0 antagonists
[17] = NCI-H292 cells in cholesterol-free media without statin
[18] = NCI-H292 cells in complete media
[19] = NCI-H292 cells, FDA library drug in cholesterol-free media with simvastatin 0.04 μM
[20] = NCI-H292 cells, FDA library drug in complete media
[21] = NCI-H292 cells, cholesterol-free media without statin

O=c1[nH]c(=O)n([C@H]2C[C@H](O)[C@@H](CO)O2)cc1C(F)(F)F [Trifluridine]
Difference [1, 3]: −0.14 | Cholesterol-free [1, 4]: 0.2875 | Complete [1, 5]: 0.145 | Cholesterol-free media + simvastatin (0.04 μM) [2, 6]: 0.1119 | Complete Media [2, 7]: 0.1066 | Difference [2, 8]: −0.01

CCCCC(=O)N(Cc1ccc(-c2ccccc2-c2nnn[nH]2)cc1)[C@H](C(=O)O)C(C)C [Valsartan]
Difference [1, 3]: −0.09 | Cholesterol-free [1, 4]: 0.8984 | Complete [1, 5]: 0.8065 | Cholesterol-free media + simvastatin (0.04 μM) [2, 9]: 1.056 | Complete Media [2, 10]: 0.8568 | Difference [2, 11]: −0.20

Flecainide (acetate)
Cholesterol-free [1, 12]: 0.7015 | Complete [1, 13]: 1.125 | Difference ([1]; complete vs cholesterol-free media, >0 enhanced anti-cancer activity, about 0 neutral, <0 antagonist): 0.42 | Cholesterol-free media + simvastatin (0.04 μM) [2, 14]: 1.399 | Complete Media [2, 5]: 2.119 | Difference ([2]; complete media minus cholesterol-free media + simvastatin, >0 enhanced anti-cancer activity, about 0 neutral, <0 antagonist): 0.72

CCCCCCCCN=c1ccn(CCCCCCCCCCn2ccc(=NCCCCCCCC)cc2)cc1 [Octenidine (dihydrochloride)]
Difference [1, 15]: 0.01 | Cholesterol-free [1, 12]: 0.00456 | Complete [1, 13]: 0.01483 | Cholesterol-free media + simvastatin (0.04 μM) [2, 6]: −0.0001133 | Complete Media [2, 7]: −0.0003925 | Difference [2, 8]: 0.00

O=C1NC(c2ccccc2)(c2ccccc2)C(=O)N1COP(=O)(O)O [Fosphenytoin (disodium)]
Difference [1, 16]: −1.22 | Cholesterol-free [1, 17]: 2.489 | Complete [1, 18]: 1.268 | Cholesterol-free media + simvastatin (0.04 μM) [2, 19]: 1.806 | Complete Media [2, 20]: 1.233 | Difference [2, 11]: −0.57

CO[C@@]1(NC(=O)C(C(=O)O)c2ccc(O)cc2)C(=O)N2C(C(=O)O)=C(CSc3nnnn3C)CO[C@@H]21 (stereo partly drawn) [Moxalactam (sodium salt)]
Difference [1, 16]: −0.79 | Cholesterol-free [1, 17]: 1.849 | Complete [1, 18]: 1.058 | Cholesterol-free media + simvastatin (0.04 μM) [2, 19]: 1.994 | Complete Media [2, 20]: 1.097 | Difference [2, 11]: −0.90

Cl.NCCC[C@H](N)C(=O)O [L-Ornithine (hydrochloride)]
Difference [1, 3]: −0.11 | Cholesterol-free [1, 4]: 1.434 | Complete [1, 5]: 1.328 | Cholesterol-free media + simvastatin (0.04 μM) [2, 6]: 0.8763 | Complete Media [2, 7]: 0.8132 | Difference [2, 8]: −0.06

[H]/N=C(\N/C(=N/[H])Nc1ccc(Cl)cc1)NC(C)C [Proguanil]
Difference [1, 3]: −0.09 | Cholesterol-free [1, 4]: 1.148 | Complete [1, 5]: 1.059 | Cholesterol-free media + simvastatin (0.04 μM) [2, 9]: 1.355 | Difference [2, 11]: −0.18

Bephenium (hydroxynaphthoate)
Complete ([1]; NCI-H292 cells, complete media): 0.7234 | Difference ([1]; complete vs cholesterol-free media, greater than 0 enhanced anti-cancer activity, about 0 neutral, below 0 antagonists): −0.43 | Cholesterol-free media + simvastatin (0.04 μM) [2, 9]: 1.634 | Complete Media [2, 10]: 1.472 | Difference [2, 11]: −0.16

Dihydroergotamine (mesylate)
Difference ([1]; Complete minus Cholesterol-free, […]): −0.20 | Cholesterol-free [1, 21]: 1.021 | Complete ([1]; NCI-H292 cells, complete media): 0.8213 | Complete Media [2, 10]: 0.9713 | Difference ([2]; complete media vs cholesterol-free media + simvastatin (0.04 μM), […]): −0.18

COC(=O)N[C@@H](C)CNc1nccc(-c2cn(C(C)C)nc2-c2cc(Cl)cc(NS(C)(=O)=O)c2F)n1 [Encorafenib]
Difference [1, 15]: −0.19 | Cholesterol-free [1, 21]: 0.5021 | Complete ([1]; NCI-H292 cells, complete media): 0.3116 | Cholesterol-free media + simvastatin (0.04 μM) [2, 6]: 0.6063 | Complete Media [2, 7]: 0.5501 | Difference [2, 8]: −0.06

CO[C@@H]1[C@@H](OC(N)=O)[C@@H](O)[C@H](Oc2ccc3c(O)c(NC(=O)c4ccc(O)c(CC=C(C)C)c4)c(=O)oc3c2C)OC1(C)C [Novobiocin (Sodium)]
Difference [1, 3]: −0.12 | Cholesterol-free [1, 4]: 1.193 | Complete [1, 5]: 1.072 | Cholesterol-free media + simvastatin (0.04 μM) [2, 14]: 1.139 | Complete Media [2, 5]: 1.056 | Difference [2, 11]: −0.08

O.O.O=C([O-])CC(O)(CC(=O)[O-])C(=O)[O-].[Na+].[Na+].[Na+] [Sodium citrate (dihydrate)]
Cholesterol-free [1]: 0.7144 | Complete [1]: 0.9967 | Difference [1]: 0.28 | Cholesterol-free media + simvastatin (0.04 μM) [2]: 1.04 | Complete Media [2]: 1.108 | Difference [2]: 0.07
